The first test addresses Carbonic anhydrase 9 (Homo sapiens, UniProt Q16790). The test is described as follows: Inhibition of human recombinant carbonic anhydrase 9 preincubated for 15 mins by stopped flow CO2 hydration assay.
A word on the Ki: it is a measure of affinity in units of concentration, obtained from inhibition or displacement. As to `NS(=O)(=O)c1ccc(-n2c(S)nc3c(Cl)cccc3c2=O)cc1`, the inhibition constant Ki was determined as 43.9 nM. As for `COc1cccc2c(=O)n(-c3ccc(S(N)(=O)=O)cc3)c(S)nc12`, the Ki stood at 5.1 nM.

For the compound `NS(=O)(=O)c1ccc(-n2c(S)nc3cc(Cl)ccc3c2=O)cc1`, the inhibition constant Ki was found to be 157 nM. Same read-out and setting: to `COc1cc2c(=O)n(-c3ccc(S(N)(=O)=O)cc3)c(S)nc2c(OC)c1OC` belongs 50.4 nM; to `NS(=O)(=O)c1ccc(-n2c(S)nc3ccc(Cl)cc3c2=O)cc1`, 34.9 nM. On the same count and under the same terms, then `COc1ccc2nc(S)n(-c3ccc(S(N)(=O)=O)cc3)c(=O)c2c1`, with 3.7 nM; and `NS(=O)(=O)c1ccc(-n2c(S)nc3cc(Br)ccc3c2=O)cc1`, with 163 nM; and `Cc1cc(C)c2nc(S)n(-c3ccc(S(N)(=O)=O)cc3)c(=O)c2c1`, with 17.5 nM. Same read-out and setting: then `NS(=O)(=O)c1ccc(-n2c(S)nc3c(I)cccc3c2=O)cc1`, with 14.5 nM; and `NS(=O)(=O)c1ccc(-n2c(S)nc3c(Br)cccc3c2=O)cc1`, with 4.7 nM. Regarding `NS(=O)(=O)c1ccc(-n2c(S)nc3ccc(Br)cc3c2=O)cc1`, the Ki came to 275 nM. Still for that read-out and setting: to `COc1ccc2c(=O)n(-c3ccc(S(N)(=O)=O)cc3)c(S)nc2c1OC` belongs 49.3 nM; to `Cc1cccc2c(=O)n(-c3ccc(S(N)(=O)=O)cc3)c(S)nc12`, 35.6 nM; to `NS(=O)(=O)c1ccc(-n2c(S)nc3c(F)cccc3c2=O)cc1`, 45.4 nM. Same read-out and setting: to `Cc1ccc2nc(S)n(-c3ccc(S(N)(=O)=O)cc3)c(=O)c2c1` belongs 16.2 nM.

In a further test the target is Carbonic anhydrase 1 (Homo sapiens, UniProt P00915). The test is described as follows: Inhibition of human recombinant carbonic anhydrase 1 preincubated for 15 mins by stopped flow CO2 hydration assay.
Chain of Carbonic anhydrase 1 (P00915 whole entry): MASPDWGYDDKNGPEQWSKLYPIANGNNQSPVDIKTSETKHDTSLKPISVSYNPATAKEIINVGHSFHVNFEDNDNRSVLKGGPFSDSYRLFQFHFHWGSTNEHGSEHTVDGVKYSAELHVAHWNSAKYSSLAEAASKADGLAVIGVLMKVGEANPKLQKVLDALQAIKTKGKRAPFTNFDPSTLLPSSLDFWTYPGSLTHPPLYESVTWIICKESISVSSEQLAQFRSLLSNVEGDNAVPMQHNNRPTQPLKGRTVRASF
Take `COc1ccc2c(=O)n(-c3ccc(S(N)(=O)=O)cc3)c(S)nc2c1`: the inhibition constant Ki is over 10000 nM.

These data come from ChEMBL document CHEMBL3763024, “Development of 3-(4-aminosulphonyl)-phenyl-2-mercapto-3H-quinazolin-4-ones as inhibitors of carbonic anhydrase isoforms involved in tumorigenesis and glaucoma” (Bioorg Med Chem, 2016).
